Data on eleven compounds can be found in patent publication US20250206763A1, “ENPP1 INHIBITOR” (SHANGHAI QILU PHARMACEUTICAL RESEARCH AND DEVELOPMENT …, priority 2022, published 2025).

Some results are limits rather than exact numbers.

Assay [1] concerns MDA-MB-231 CM-THP1 (THP1-Dual Cells NF-κB-SEAP and IRF-Lucia luciferase Reporter Monocytes). The assay can be described thus: Cell Activity Test 2: MDA-MB-231 cells treated with compound and cGAMP, supernatant transferred to THP1-Dual IRF-Lucia luciferase reporter cells. The format is cell-based. The settings on record: 30 minutes pretreatment, cGAMP 24 hours, supernatant on THP1-Dual reporter cells 24 hours, QUANTI-Luc. The text has this:
THP1-Dual Cells NF-κB-SEAP and IRF-Lucia luciferase Reporter Monocytes cells (Invivogen, thpd-nfis), MDA-MB-231 cells (ATCC, CRM-HTB-26), RPMI-1640 medium (Gibco, 11875-093), FBS (Gibco, 10099), penicillin-streptomycin (Gibco, 15070063), HEPES (ThermoFisher, 15630080), L-glutamine (ThermoFisher, 25030081), Normocin-Antimicrobial Reagent (InVivoGen, ant-nr-1), Zeocin (Invivogen, ant-zn-1), Blasticidin (Invivogen, ant-bl-1), Mammalian (non-canonical) CDN, cyclic [G(2′,5′)pA(3′,5′)p] (referred to as cGAMP hereinafter, Invivogen, tlrl-nacga23-1), QUANTI-Luc (InvivoGen, rep-qlc2), Multimode Plate Reader (PerkinElmer, EnVision 2105 Alpha 680 nm Laser), and conventional cell culture consumables (NEST). […]
An appropriate amount of MDA-MB-231 cells in logarithmic growth phase was taken and centrifuged at 300×g for 5 minutes, and the supernatant was removed. The cells were re-suspended with MDA-MB-231 cell growth medium and counted, and the cell density was adjusted to 6×10^4 cells/mL. […]
After 24 hours, the resulting was centrifuged at 300×g for 5 minutes, 10 μL of cell supernatant was transferred to a new 384-well plate with a white opaque bottom, followed by the addition of 25 μL of QUANTI-Luc reaction solution to each well. They were shaken well for 1 minute away from light and the plate was read immediately.
Background: Reporter assays use an easily measured gene product as a stand-in for the process of interest.

The test system of a further assay is MDA-MB-231 cells. The assay can be described thus: Cell Activity Test 1: pNP-AMP hydrolysis on MDA-MB-231 cells, absorbance at 405. To be noted: Homo sapiens, 1 hour pre-incubation, 0.25 mM pNP-AMP, 5 hours of reaction, read-out: MDA-MB-231 cell biochemical IC50. In kind it is cell-based. Here is the method: MDA-MB-231 cells were digested and suspended, the cell density was adjusted to 4.5×10^5 cells per milliliter, and the cells were seeded in 384 microtiter plates at 50 microliters per well. The cells were incubated in an incubator at 37° C. with […] for 24 h. After 24 h, the cell plates were taken out, the cell culture medium was pipetted and washed once with 50 μL of PBS. Then 20 μL of 1640 medium free of phenol red and serum was added per well, and 2× of compound was added with Tecan, with 1:3 dilution. The compounds were pre-incubated for 1 hour. Afterwards, the reaction was initiated by adding a substrate mixture (50 μL system, 0.5 mM pNP-AMP dissolved in 1640 medium free of phenol red and serum) at a final substrate concentration of 0.25 mM. Absorbance values were read at 405 nm in a microplate reader after 5 hours of reaction, 4-Parameter Logistic Curve model was applied to calculate the […] of the compounds, taking positive compounds as 100% inhibition and DMSO as 0% inhibition.

A further assay addresses T1, human ENPP1 (Homo sapiens, UniProt P22413).
T1 construct: purchased Biovendor AP-18-081; host or cells: HEK293
T1 sequence (P22413 1-925): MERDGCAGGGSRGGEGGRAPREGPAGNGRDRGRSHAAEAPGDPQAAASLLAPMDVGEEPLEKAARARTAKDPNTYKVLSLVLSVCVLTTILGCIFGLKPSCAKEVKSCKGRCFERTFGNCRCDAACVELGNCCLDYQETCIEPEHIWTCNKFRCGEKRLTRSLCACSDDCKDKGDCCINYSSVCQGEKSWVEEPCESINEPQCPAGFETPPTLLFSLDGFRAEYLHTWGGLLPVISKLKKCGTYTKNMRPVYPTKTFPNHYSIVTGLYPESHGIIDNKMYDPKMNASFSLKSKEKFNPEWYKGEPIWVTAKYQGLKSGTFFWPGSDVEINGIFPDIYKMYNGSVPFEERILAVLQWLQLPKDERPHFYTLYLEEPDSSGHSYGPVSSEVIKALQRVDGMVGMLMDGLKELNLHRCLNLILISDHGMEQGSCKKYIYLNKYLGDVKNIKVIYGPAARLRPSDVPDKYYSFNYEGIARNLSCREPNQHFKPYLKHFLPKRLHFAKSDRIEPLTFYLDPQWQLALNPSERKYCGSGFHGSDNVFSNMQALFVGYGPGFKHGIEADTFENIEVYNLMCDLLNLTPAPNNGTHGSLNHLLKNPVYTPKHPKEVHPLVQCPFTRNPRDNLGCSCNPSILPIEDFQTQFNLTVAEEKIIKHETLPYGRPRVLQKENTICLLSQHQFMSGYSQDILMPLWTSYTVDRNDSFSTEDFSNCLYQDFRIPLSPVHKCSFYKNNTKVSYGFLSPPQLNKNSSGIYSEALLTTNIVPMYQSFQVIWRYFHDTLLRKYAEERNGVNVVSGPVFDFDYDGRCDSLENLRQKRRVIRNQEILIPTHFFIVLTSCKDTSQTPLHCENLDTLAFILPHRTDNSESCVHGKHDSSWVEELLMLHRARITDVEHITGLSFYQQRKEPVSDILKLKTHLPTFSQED
The assay can be described thus: In vitro enzyme activity assay: human ENPP1 enzymatic assay (cGAMP), AMP-Glo. The format is biochemical. The settings on record: substrate cGAMP, AMP-Glo detection. The method, then: AMP-Glo Assay Kit (PROMEGA, V5012), ENPP-1-IN-1 (MCE, HY-129490), white opaque 384-well plate (Perkin Elmer, 6008289), Mammalian (non-canonical) CDN, cyclic[g(2′,5′)pA(3′,5′)p](referred to as cGAMP hereinafter, Invivogen, tlrl-nacga23-5), ENPP1 Protein Human HEK293 (Biovendor, AP-18-081).
• 1) Preparing 1× reaction buffer (Tris buffer), 1× enzyme buffer, and 1× substrate buffer; • 2) diluting the compounds using Echo550 and supplementing with DMSO; • 3) pre-loading 2.5 μL of enzyme solution on a reaction plate (adding 2.5 μL of buffer instead as negative control) and incubating it at room temperature; • 4) adding 2.5 μL of substrate solution to the system and incubating it at room temperature; • 5) adding 5 μL of AMP-Glo solution that has been allowed to cooled down to room temperature, centrifuging and reacting at room temperature, • 6) adding 10 μL of AMP Detection solution at room temperature, centrifuging and reacting at room temperature; and • 7) reading the plate using EnVision.

For orientation: EC50 means the midpoint of the concentration-response curve. Usually IC50 stands for the concentration at which inhibition is half-maximal. On to `O=c1[nH]c2cnc3c4c(ccc3c2n1Cc1ccc(P(=O)(O)O)c(F)c1)OCO4` [Compound 1, (2-fluoro-4-((7-oxo-6,7-dihydro-8H-[1,3]dioxolo[4,5-h]imidazo[4,5-c]quinolin-8-yl)methyl)phenyl)phosphonic add], for which, in assay [1], the EC50 was 3.5 nM. The IC50 in the assay with MDA-MB-231 cells was 1.12 nM; on human ENPP1, < 10 nM.
On to `COc1cc(Cn2c(=O)[nH]c3cnc4c5c(ccc4c32)OCO5)ccc1P(=O)(O)O` [Compound 49], for which the IC50 at human ENPP1 is < 10 nM.
For the compound `O=c1n(Cc2ccc(P(=O)(O)O)c(F)c2)c2c3ccc4c(c3ncc2n1C(F)F)OCO4` [Compound 51], the IC50 against human ENPP1 was < 10 nM.
`O=c1n(Cc2ccc(P(=O)(O)O)c(F)c2)c2c3ccc4c(c3ncc2n1-c1ccccc1)OCO4` [Compound 52]: the IC50 against human ENPP1 was < 10 nM.
Consider `CN(C)CCn1c(=O)n(Cc2c(F)cc(S(N)(=O)=O)cc2F)c2c3ccc4c(c3ncc21)OCO4` [Compound 53], for which, at human ENPP1, the IC50 was < 10 nM.
As for `Cc1nc2cnc3c4c(ccc3c2n1Cc1ccc(P(=O)(O)O)c(F)c1)OCO4` [Compound 54, (2-fluoro-4-((7-methyl-8H-[1,3]dioxolo[4,5-h]imidazo[4,4-c]quinolin-8-yl)methyl)phenyl)phosphonic acid], the IC50 against human ENPP1 was < 10 nM.
Still for that read-out and setting: the figure for `COc1cc2c(ncc3[nH]c(=O)n(Cc4ccc(P(=O)(O)O)c(F)c4)c32)c2c1OCO2` [Compound 55] is < 10 nM; for `Cn1c(=O)n(Cc2ccc(P(=O)(O)O)c(F)c2)c2c3cn[nH]c3ncc21` [Compound 60] it is < 10 nM.
`O=c1[nH]c2cnc3c4c(ccc3c2n1Cc1ccc(P(=O)(O)O)c(OCc2ccccc2)c1)OCO4` [Compound 61]: the IC50 against human ENPP1 was < 10 nM.
Turning to `NS(=O)(=O)c1cnc(Cn2c(=O)[nH]c3cnc4c5c(ccc4c32)OCO5)c(F)c1` [Compound 63], the IC50 at human ENPP1 is < 10 nM.
Take `COc1ccc2c(ncc3[nH]c(=O)n(Cc4ccc(P(=O)(O)O)c(F)c4)c32)n1` [Control Compound, reference compound]: in assay [1], the EC50 stood at 14.6 nM. Besides, the IC50 in the assay on MDA-MB-231 cells amounted to 9.78 nM.
